Results taken from patent publication US10105443B2, “Sustained-release drug carrier composition” (POLYPID LTD., priority 2008, dated 2018).

Key:
Type in all cases: physicochemical
[1] = Influence of polymer/lipid composition of the matrix on release rate of the entrapped agent; details: FIG. 8
Protocol: The influence of different polymer/lipid compositions on the release rate of a given drug was measured using fluorescein entrapped within a matrix compositing PLGA (75:25), DPPC as the main phospholipid and varying amounts of lauric acid (LA) and phosphatidylethanolamine (PE) having saturated fatty acid moieties of at least 14 carbons. […] The release lasted between about 20 to about 110 days when LA:PE w/w % ratio was varied between 10:10 to 0:0 respectively (vs. the total mass of the formulation). The drug release profile from bone particles coated with matrix formulation comprising PE versus bone particles coated with matrix formulation comprising cholesterol was compared.
The fact that different polymer/lipid compositions influence the release rate can be used to fulfill different clinical needs. […] In contrast, when the antibiotic drug, DOX, was associated with a slow degrading polymer such as PLGA 85:15 and a 18:0 phospholipid such as DSPC, complete release of the drug was accomplished after more than 50 days (FIG. 8).

[2] = Release of drug from bone filler particles coated with the matrix composition following hydration; details: for period of constant release of DOX: bone filler particles (BioOss) coated with matrix PLGA 85:15, cholesterol, DSPC (18:0), with or without alpha-tocopherol; for kinetics of co-release from the surface of coated bone particles: surrounding medium 5% PBS at 37° C., FIG. 15
Protocol: • 50-75 KDa PLGA (poly (lactic-co-glycolic acid, 85:15 ratio)) • Cholesterol-50%-100% w/w vs. PLGA. The mixture is mixed. The entire process is performed at room temperature. A fat-polymer combination matrix is thus obtained. II. Preparation of Second Solution The following materials are mixed with a volatile organic solvent (methanol and ethyl acetate) • a. […] A phosphatidylcholine, —1,2-distearoyl-sn-glycero-3-phosphocholine (DSPC) present as 300-700% w/w vs. PLGA. The mixture is mixed well. The entire process is conducted at room temperature. When phosphatidylcholine having long saturated fatty chains is used (e.g. DSPC) the process is typically performed at higher temperatures of about 40-50° C. No water is required in the mixture. […] Stirring is continued for 1-5 minutes. The entire process is performed at a temperature of 20-50° C. depending of the lipid used. IV—Evaporation Following Surface Coating In order to coat bone filler particles, the particles are added to the mixture of stage III followed by evaporation of the volatile organic solvents. The entire process is performed at a temperature of 40-50° C. The ratio between the volume and the percentage of solids in the mixture of stage III and the mass of the bone particles will determine the release period of the drug post hydration of the coated particles. V—Vacuum Drying Coated bone particles are vacuum-dried for storage. […] The rate of sustained release of Doxycycline hyclate encapsulated within the matrix composition of the present invention was measured and compared to the release rate of the drug from bone particles socked with free DOX solution (having the same amount of DOX).
The release profile of DOX from a mixture of coated and non coated bone (xenografts bovine—commercial—BioOss) particles was measured. The coated particles were mixed with similar plain (not-coated) bone particles in a ratio of 1:4. […] The formulation in this study comprised PLGA 75:25 and DPPC.
The release of DOX from bone particles (12 mg/sample) coated with different mass of the DOX containing matrix formulation was compared. Following hydration (5% serum at 37° C.) the duration of release of 90% of the initial DOX amount in the formulation was monitored (FIG. 10).

[3] = Drug release from absorbable gelatin sponge containing the sustained release formulation (HPLC); details: 5% serum at 37° C.
Protocol: A solution containing PLGA—75:25, PC 16:0, cholesterol 10% and Doxycycline hyclate (DOX) 10% was injected into the center of the absorbable gelatin sponge foam cube (Gelatamp. ROEKO). The overall content of DOX in the injected formulation was 380 μg in 25 μl. The solvent was evaporated in a 37° C. incubator and subsequently over night under vacuum. As a control, the common use of pre-wetting with a similar dose of DOX (380 μg) solution was injected into the gelatin sponge tube. Following hydration (5% serum at 37° C.) the release of DOX from the gelatin sponge cube into the surrounding was detected and quantified by HPLC.

| Compound | time to full release of the drug ([1]; PLGA 50:50 and 14:0 phospholipid DMPC) | share of encapsulated DOX released following zero order kinetics ([2]; DOX encapsulated in the formulation, FIG. 2) | period of constant release of DOX [2] | period of constant release of DOX ([2]; listed as Doxycycline hyclate) | release kinetics ([2]; bone filler particles coated with matrix PLGA 85:15, cholesterol, DSPC, FIG. 2) | dependence of duration of release of 90% of DOX on formulation mass ([2]; bone particles 12 mg/sample coated with different mass of formulation, 5% serum at 37° C., FIG. 10) | drug released in 3 hours after hydration ([2]; bone particles coated with PLGA 75:25 / DPPC formulation, mixed 1:4 with non-coated particles, 5% serum at 37° C.) | release profile, matrix comprising PE (DMPE) versus matrix comprising cholesterol ([2]; coated bone particles, 5% serum at 37° C., FIG. 7) | effect of presence of non-coated particles on release of DOX from the formulation ([2]; coated:non-coated bone particles 1:4, 5% serum at 37° C., PLGA 75:25 and DPPC) | kinetics of co-release from the surface of coated bone particles [2] | drug released in 3 hours after hydration ([2]; uncoated bone particles soaked with free DOX (control), 5% serum at 37° C.) | time to complete release of the drug ([1]; PLGA 85:15 and 18:0 phospholipid DSPC) | DOX released immediately into the medium ([3]; control: gelatin sponge pre-wetted with DOX solution (380 μg)) | DOX released into the medium immediately after hydration ([3]; gelatin sponge (Gelatamp) with PLGA 75:25, PC 16:0, cholesterol 10%, DOX 10%, 380 μg DOX) | period of gradual release of the rest of the drug ([3]; gelatin sponge with PLGA 75:25, PC 16:0, cholesterol 10%, DOX 10%) |
| --- | --- | --- | --- | --- | --- | --- | --- | --- | --- | --- | --- | --- | --- | --- | --- |
| CC(C(=O)O)c1ccc(-c2ccccc2)c(F)c1 (stereo not shown) [NSAID, Flurbiprofen] | ≤ 10 days |  |  |  |  |  |  |  |  |  |  |  |  |  |  |
| Doxycycline hyclate |  | ~70% | at least 3 weeks | about three | zero order kinetics | linearly depended on the formulation mass | about 15% | behaves similarly | not affected | zero order kinetics | 88% | more than 50 days | total amount | about 40% | more than 7 days |
| CCCCCCCCCCCCCCCC(=O)OC[C@H](COP(=O)([O-])OCC[N+](C)(C)C)OC(=O)CCCCCNc1ccc([N+](=O)[O-])c2nonc12 [NBD-PC, 1-palmitoyl-2-{6-[(7-nitro-2-1,3-benzoxadiazol-4-yl)amino]hexanoyl}-sn-glycero-3-phosphocholine] |  |  |  |  |  |  |  |  |  | zero order kinetics |  |  |  |  |  |
